Target: T1, SIRT1 (Homo sapiens, UniProt Q96EB6)
T1 sequence (Q96EB6 1-747): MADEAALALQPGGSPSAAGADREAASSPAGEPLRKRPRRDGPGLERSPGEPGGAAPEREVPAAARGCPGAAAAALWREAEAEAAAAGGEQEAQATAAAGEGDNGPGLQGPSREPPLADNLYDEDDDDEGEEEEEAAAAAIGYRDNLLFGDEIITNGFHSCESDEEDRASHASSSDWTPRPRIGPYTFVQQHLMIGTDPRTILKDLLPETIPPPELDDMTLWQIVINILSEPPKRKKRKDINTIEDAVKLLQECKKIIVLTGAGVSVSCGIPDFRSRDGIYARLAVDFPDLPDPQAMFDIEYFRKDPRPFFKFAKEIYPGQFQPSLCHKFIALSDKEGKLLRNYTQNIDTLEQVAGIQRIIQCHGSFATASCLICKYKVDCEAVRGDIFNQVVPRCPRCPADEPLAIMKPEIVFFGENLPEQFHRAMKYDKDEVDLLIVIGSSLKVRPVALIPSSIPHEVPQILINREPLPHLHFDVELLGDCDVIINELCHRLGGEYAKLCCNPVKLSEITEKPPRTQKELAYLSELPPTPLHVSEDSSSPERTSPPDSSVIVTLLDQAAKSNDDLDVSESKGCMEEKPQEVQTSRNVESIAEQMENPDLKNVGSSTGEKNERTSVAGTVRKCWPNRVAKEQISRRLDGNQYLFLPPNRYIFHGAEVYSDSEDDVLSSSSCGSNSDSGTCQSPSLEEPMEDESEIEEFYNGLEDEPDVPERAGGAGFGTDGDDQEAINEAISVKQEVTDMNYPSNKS
Experiment: Mass spectrometry based SIRT1 deacetylation (activation) assay
Format: biochemical
Conditions: 0.5 μM peptide substrate, 120 μM βNAD+, 10 nM SIRT1, 25 min at 25° C.; for Emax: 25 min, read-out: % Fold Act. (percent maximum fold activation)

| EC1.5 | Emax | SMILES |
| --- | --- | --- |
| A (EC1.5≦1 uM) | ≥ 300% | CCN(CCN(C)C)c1cc(C(=O)Nc2ccccc2C(=O)NC2CCNC2)nc(-c2ccccc2)n1 (centres unmarked) [Compound 175, 6-((2-(dimethylamino)ethyl)(ethyl)amino)-2-phenyl-N-(2-(pyrrolidin-3-ylcarbamoyl)phenyl)pyrimidine-4-carboxamide] |
| A (EC1.5≦1 uM) | 150 to 300% | O=C(Nc1ccccc1C(=O)c1nccs1)c1cc(N2CCOCC2)nc(-c2ccccc2)n1 [Compound 176] |
| A (EC1.5≦1 uM) | ≥ 300% | CCN(CCN(C)C)c1cc(C(=O)Nc2ccccc2C(=O)c2nccs2)nc(-c2ccccc2)n1 [Compound 177] |
| C (EC1.5>10 uM) | 150 to 300% | CN(C)CCN(C)c1cc(C(=O)Nc2ccccc2-c2nnc(-c3ccccc3)s2)nc(-c2ccccc2)n1 [Compound 179] |
